Molecules are shown by their SMILES. pKi: −log10 of the molar value. Read-outs that look alike come from different tables or passages of the source.

These results are taken from US11834463B2, “High affinity macrocyclic FKB51-inhibitors for treatment of psychiatric disorders” (priority 2020, dated 2023).

The target in assay [1] is FKBP12.6 (Homo sapiens, UniProt P68106). Briefly: competitive fluorescence polarization assay, binding to FKBP12.6. To be noted: for pKi: Table 2, read-out: FKBP12.6 Ki. The procedure:
(§1) All macrocyclic compounds were tested in a competitive fluorescence polarization assay for binding towards FKBP51 as well as the homologs FKBP12, FKBP12.6 and FKBP52 (Table 1).
(§2) Example 8: […] of the Macrocyclic FKBP51 Ligands by SPPS
A general note: Fluorescence polarisation rises when a labelled molecule tumbles more slowly, as on binding a larger partner.

The target in assay [2] is FKBP12 (Homo sapiens, UniProt P62942). Briefly: competitive fluorescence polarization assay, binding to FKBP12. As to conditions: for pKi: Table 2, read-out: FKBP12 Ki. As to the method: as §1, §2
Assay [3] concerns the target T1, FKBP51FK1 (Homo sapiens, UniProt Q13451).
T1 sequence (Q13451 42-130 limits assumed): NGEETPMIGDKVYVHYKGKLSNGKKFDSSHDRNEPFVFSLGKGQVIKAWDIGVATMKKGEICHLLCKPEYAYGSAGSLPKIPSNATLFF
The experiment in a line: biochemical. The procedure:
as §1, §2

The mark [4] stands for this setting: Table 1, competitive Fluorescence Polarization Assay, read-out: Ki [nM] FKBP12.6.
Setting [5] is: Table 1, competitive Fluorescence Polarization Assay, read-out: Ki [nM] FKBP12.
The mark [6] stands for this setting: Ki [nM] FKBP51FK1, Table 1, competitive Fluorescence Polarization Assay.

Chain of FKBP12.6 (P68106 whole entry): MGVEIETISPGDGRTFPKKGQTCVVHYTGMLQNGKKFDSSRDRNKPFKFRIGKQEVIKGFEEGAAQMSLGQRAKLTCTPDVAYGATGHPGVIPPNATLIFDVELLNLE
Chain of FKBP12 (P62942 whole entry): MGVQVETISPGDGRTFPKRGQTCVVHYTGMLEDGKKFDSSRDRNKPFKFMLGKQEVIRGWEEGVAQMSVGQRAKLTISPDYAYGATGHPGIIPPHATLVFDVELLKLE

Broadly, the Ki is a measure of affinity in units of concentration, obtained from inhibition or displacement. Consider `COc1ccc(CC[C@H]2OC(=O)[C@@H]3CCCCN3C(=O)[C@@H](C3CCCCC3)c3cc(OC)c(c(OC)c3)OCC(O)C(O)COc3cccc2c3)cc1OC` (mixture of isomers) [Compound 63], for which the Ki in assay [1] (setting [4]) came out at 83 nM; in assay [2] (setting [5]) it was 97 nM; in assay [3] (setting [6]), 11 nM.
Take `COc1ccc(CCC2OC(=O)C3CCCCN3C(=O)C(C3CCCCC3)c3cc(OC)c(OC)c(c3)OCC(O)C(O)COc3cccc2c3)cc1OC` (single isomer, unassigned) [Compound 64a]: the Ki amounted to 10 nM in assay [1] (setting [4]), 23 nM in assay [2] (setting [5]) and 4 nM in assay [3] (setting [6]).
For `COc1ccc(CCC2OC(=O)C3CCCCN3C(=O)C(C3CCCCC3)c3cc(OC)c(OC)c(c3)OCC(O)C(O)COc3cccc2c3)cc1OC` (single isomer, unassigned) [Compound 64b] the same measures were 17 nM, 34 nM and 13 nM.
For `COc1ccc(CC[C@H]2OC(=O)[C@@H]3CCCCN3C(=O)[C@@H](C3CCCCC3)c3cc(OC)c(c(OC)c3)OC/C=C/COc3cccc2c3)cc1OC` [31-(E)] the same measures were 263 nM, 289 nM and 56 nM.
In the case of `COc1ccc(CC[C@H]2OC(=O)[C@@H]3CCCCN3C(=O)[C@@H](C3CCCCC3)c3cc(OC)c(c(OC)c3)OC/C=C\COc3cccc2c3)cc1OC` [31-(Z)], the inhibition constant Ki was found to be 328 nM in assay [1] (setting [4]), 261 nM in assay [2] (setting [5]) and 70 nM in assay [3] (setting [6]).
Consider `COc1ccc(CC[C@H]2OC(=O)[C@@H]3CCCCN3C(=O)[C@@H](C3CCCCC3)c3cc(OC)c(c(OC)c3)OCC/C=C\COc3cccc2c3)cc1OC` [32-(Z)], for which the inhibition constant (Ki) in assay [1] (setting [4]) amounted to 237 nM; in assay [2] (setting [5]), 189 nM; in assay [3] (setting [6]), 80 nM.
For `COc1ccc(CC[C@H]2OC(=O)[C@@H]3CCCCN3C(=O)[C@@H](C3CCCCC3)c3cc(OC)c(c(OC)c3)OCCOC/C=C/COc3cccc2c3)cc1OC` [33-(E)], the Ki came to 361 nM in assay [1] (setting [4]) and 534 nM in assay [2] (setting [5]).
In the same order, the values of `COc1ccc(CC[C@H]2OC(=O)[C@@H]3CCCCN3C(=O)[C@@H](C3CCCCC3)c3cc(OC)c(c(OC)c3)OCCOC/C=C\COc3cccc2c3)cc1OC` [33-(Z)] are 186 nM and 309 nM.
With `COc1ccc(CCC2OC(=O)C3CCCCN3C(=O)C(C3CCCCC3)c3cc(OC)c(OC)c(c3)OC/C=C/COc3cccc2c3)cc1OC` (stereo not shown) [35-(E)], the inhibition constant (Ki) in assay [1] (Table 1, unit μM printed in the cell, read-out: Ki FKBP12.6) was over 100000 nM; in assay [2] (Table 1, unit μM printed in the cell, read-out: Ki FKBP12) it was over 100000 nM; in assay [3] (Ki FKBP51FK1, Table 1, unit μM printed in the cell), over 5000 nM.
For `COc1ccc(CCC2OC(=O)C3CCCCN3C(=O)C(C3CCCCC3)c3cc(OC)c(OC)c(c3)OC/C=C\COc3cccc2c3)cc1OC` (stereo not shown) [35-(Z)], the Ki in assay [1] (setting [4]) is 192 nM; in assay [2] (setting [5]), 173 nM; in assay [3] (setting [6]) it was 93 nM.
For `COc1ccc(CC[C@H]2OC(=O)[C@@H]3CCCCN3C(=O)[C@@H](C3CCCCC3)c3cc(OC)c(OC)c(c3)OCC/C=C\COc3cccc2c3)cc1OC` [36-(Z)] the same measures were 96 nM, 118 nM and 77 nM.
Consider `COc1ccc(CC[C@H]2OC(=O)[C@@H]3CCCCN3C(=O)[C@@H](C3CCCCC3)c3cc(OC)c(OC)c(c3)OCCOC/C=C/COc3cccc2c3)cc1OC` [37-(E)], for which the Ki in assay [1] (setting [4]) turned out to be 74 nM; in assay [2] (setting [5]) it was 182 nM; in assay [3] (setting [6]), 46 nM.
For `COc1ccc(CC[C@H]2OC(=O)[C@@H]3CCCCN3C(=O)[C@@H](C3CCCCC3)c3cc(OC)c(OC)c(c3)OCCOC/C=C\COc3cccc2c3)cc1OC` [37-(Z)] the same measures were 190 nM, 270 nM and 113 nM.
For `COc1ccc(CC[C@H]2OC(=O)[C@@H]3CCCCN3C(=O)[C@@H](C3CCCCC3)c3cc(OC)c(OC)c(c3)OCCCOC/C=C/COc3cccc2c3)cc1OC` [38-(E)], the Ki in assay [1] (setting [4]) is 144 nM; in assay [2] (setting [5]) it was 269 nM; in assay [3] (setting [6]) it was 93 nM.
For `COc1ccc(CC[C@H]2OC(=O)[C@@H]3CCCCN3C(=O)[C@@H](C3CCCCC3)c3cc(OC)c(c(OC)c3)OCCCCOc3cccc2c3)cc1OC` [Compound 39] the same measures were 191 nM, 159 nM and 53 nM.
As to `COc1ccc(CC[C@H]2OC(=O)[C@@H]3CCCCN3C(=O)[C@@H](C3CCCCC3)c3cc(OC)c(c(OC)c3)OCCCCCOc3cccc2c3)cc1OC` [Compound 40], the Ki in assay [1] (setting [4]) amounted to 198 nM; in assay [2] (setting [5]) it was 204 nM; in assay [3] (setting [6]) it was 102 nM.
In the same order, the values of `COc1ccc(CC[C@H]2OC(=O)[C@@H]3CCCCN3C(=O)[C@@H](C3CCCCC3)c3cc(OC)c(c(OC)c3)OCCOCCCCOc3cccc2c3)cc1OC` [Compound 41] are 230 nM, 449 nM and 118 nM.
`COc1ccc(CC[C@H]2OC(=O)[C@@H]3CCCCN3C(=O)[C@@H](C3CCCCC3)c3cc(OC)c(OC)c(c3)OCCCCOc3cccc2c3)cc1OC` [Compound 43]: the figures for the Ki in assay [1] (setting [4]), in assay [2] (setting [5]) and in assay [3] (setting [6]) were 62 nM, 92 nM and 30 nM, respectively.
As for `COc1ccc(CC[C@H]2OC(=O)[C@@H]3CCCCN3C(=O)[C@@H](C3CCCCC3)c3cc(OC)c(OC)c(c3)OCCCCCOc3cccc2c3)cc1OC` [Compound 44], the inhibition constant (Ki) in assay [1] (setting [4]) stood at 65 nM; in assay [2] (setting [5]), 88 nM; in assay [3] (setting [6]), 43 nM.
In the case of `COc1ccc(CC[C@H]2OC(=O)[C@@H]3CCCCN3C(=O)[C@@H](C3CCCCC3)c3cc(OC)c(OC)c(c3)OCCOCCCCOc3cccc2c3)cc1OC` [Compound 45], the Ki in assay [1] (setting [4]) worked out at 84 nM; in assay [2] (setting [5]), 123 nM; in assay [3] (setting [6]), 48 nM.
For `COc1ccc(CC[C@H]2OC(=O)[C@@H]3CCCCN3C(=O)[C@@H](C3CCCCC3)c3cc(OC)c(OC)c(c3)OCCCOCCCCOc3cccc2c3)cc1OC` [Compound 46] the same measures were 116 nM, 449 nM and 80 nM.
In the same order, the values of `COc1ccc(CC[C@H]2OC(=O)[C@@H]3CCCCN3C(=O)[C@@H](C3CCCCC3)c3cc(OC)c(c(OC)c3)OCCOc3cccc2c3)cc1OC` [Compound 55] are 190 nM, 412 nM and 64 nM.
As for `COc1ccc(CC[C@H]2OC(=O)[C@@H]3CCCCN3C(=O)[C@@H](C3CCCCC3)c3cc(OC)c(c(OC)c3)OCCCOc3cccc2c3)cc1OC` [Compound 56], the Ki in assay [1] (setting [4]) is 211 nM; in assay [2] (setting [5]) it was 384 nM; in assay [3] (setting [6]), 67 nM.
Regarding `COc1ccc(CC[C@H]2OC(=O)[C@@H]3CCCCN3C(=O)[C@@H](C3CCCCC3)c3cc(OC)c(OC)c(c3)OCCOc3cccc2c3)cc1OC` [Compound 57], the figures for the Ki in assay [1] (setting [4]), in assay [2] (setting [5]) and in assay [3] (setting [6]) were 78 nM, 308 nM and 47 nM, respectively.
For orientation: pKi means −log10 of the Ki, conventionally taken in molar units. `COc1ccc(CC[C@H]2OC(=O)[C@@H]3CCCCN3C(=O)[C@@H](C3CCCCC3)NC(=O)[C@@H](C)NC(=O)COc3cccc2c3)cc1OC` [Compound 84, (2R,5S,12R,15R)-12-cyclohexyl-2-[2-(3,4-dimethoxyphenyl)ethyl]-15-methyl-3,19-dioxa-10,13,16-triazatricyclo[18.3.1.0^5,10]tetracosa-1(24),20,22-triene-4,11,14,17-tetrone]: the pKi in assay [1] and in assay [2] was under 4.10 in each case.
Take `COc1ccc(CC[C@H]2OC(=O)[C@@H]3CCCCN3C(=O)[C@@H](C3CCCCC3)NC(=O)C3(CC3)NC(=O)COc3cccc2c3)cc1OC` [Compound 86, (2′R,5′S,12′R)-12′-cyclohexyl-2′-[2-(3,4-dimethoxyphenyl)ethyl]-3′,19′-dioxa-10′,13′,16′-triazaspiro[cyclopropane-1,15′-tricyclo[18.3.1.0^5,10]tetracosane]-1′(24′),20′,22′-triene-4′,11′,14′,17′-tetrone]: the pKi in assay [1] and in assay [2] was under 4.10 throughout.
As for `COc1ccc(CC[C@H]2OC(=O)[C@@H]3CCCCN3C(=O)[C@@H](C3CCCCC3)NC(=O)[C@H]3CCCN3C(=O)COc3cccc2c3)cc1OC` [Compound 90, (9R,12R,19S,22R)-12-cyclohexyl-22-[2-(3,4-dimethoxyphenyl)ethyl]-2,21-dioxa-5,11,14-triazatetracyclo[21.3.1.0^5,9.0^14,19]heptacosa-1(26),23(27),24-triene-4,10,13,20-tetrone], the pKi in assay [1] and in assay [2] was under 4.10 each time.
For `COc1ccc(CC[C@H]2OC(=O)[C@@H]3CCCCN3C(=O)[C@@H](C3CCCCC3)NC(=O)CCCNC(=O)COc3cccc2c3)cc1OC` [Compound 95, (2R,5S,12R)-12-cyclohexyl-2-[2-(3,4-dimethoxyphenyl)ethyl]-3,21-dioxa-10,13,18-triazatricyclo[20.3.1.0^5,10]hexacosa-1(26),22,24-triene-4,11,14,19-tetrone], the “affinity (in words)” value in assay [3] was “no binding”.
Regarding `COc1cc2cc(c1)[C@@H](CCc1ccc(OC)c(OC)c1)OC(=O)[C@@H]1CCCCN1C(=O)[C@@H](C1CCCCC1)NC(=O)C(C)(C)NC(=O)CO2` [Compound 104, (2R,5S,12R)-12-cyclohexyl-2-[2-(3,4-dimethoxyphenyl)ethyl]-22-methoxy-15,15-dimethyl-3,19-dioxa-10,13,16-triazatricyclo[18.3.1.0^5,10]tetracosa-1(24),20,22-triene-4,11,14,17-tetrone], the “affinity (in words)” value in assay [3] is recorded as “bound similarly to the glycine derivative 83”. Also, the Ki in assay [3] (FKBP51FK1 Ki [μM], Table 2, [a] standard error from three, [c] error from two independent measurements) turned out to be 390 nM.
